Assay results published in patent US9073912B2, “Azetidine derivatives as antiparasitic agents” (Zoetis LLC, priority 2012, dated 2015).

Test system: Ctenocephalides felis
Assay: Flea (Ctenocephalides felis) Membrane Feed Assay-Adult
Details: for minimum effective concentration (MEC): assessed at 24 hours, 10-flea sample; for lethal dose 80% (LD80): adult fleas fed approx. 2 hours on treated citrated bovine blood, knockdown and/or death observed at approx. 2 and 24 hours
Procedure: Flea (Ctenocephalides felis) Membrane Feed Assay-Adult
Formula (1) compounds were dissolved in DMSO and aliquots added to citrated bovine blood in a membrane covered Petri dish pre-warmed to 37° C. Feeding tubes containing approximately 30-35 adult fleas were placed onto the Petri dishes. The fleas fed for approximately 2 hours. […] Endpoint data is recorded as a lethal dose 80% (LD^80) in μg/mL. […] Further, the results can be assessed at 24 hours based on minimum effective concentration (MEC) in μM with a 10-flea sample.

## CS(=O)(=O)CC(=O)N1CC(F)(c2ccc(C3=NCC(c4cc(Cl)cc(Cl)c4)(C(F)(F)F)C3)cc2)C1 (centres unmarked) [Example 1, 1-(3-{4-[4-(3,5-dichloro-phenyl)-4-trifluoromethyl-4,5-dihydro-3H-pyrrol-2-yl]-phenyl}-3-fluoro-azetidin-1-yl)-2-methanesulfonyl-ethanone]
  minimum effective concentration (MEC): 3 µM

## CC(C)C(=O)N1CC(F)(c2ccc(C3=NCC(c4cc(Cl)cc(Cl)c4)(C(F)(F)F)C3)cc2)C1 (centres unmarked) [Example 2, 1-(3-{4-[4-(3,5-dichloro-phenyl)-4-trifluoromethyl-4,5-dihydro-3H-pyrrol-2-yl]-phenyl}-3-fluoro-azetidin-1-yl)-2-methyl-propan-1-one]
  lethal dose 80% (LD80): 0.3 µg/mL
  minimum effective concentration (MEC): 1 µM

## CS(=O)(=O)CC(=O)N1CC(F)(c2ccc(C3=NCC(c4cc(Cl)c(F)c(Cl)c4)(C(F)(F)F)C3)cc2)C1 (centres unmarked) [Example 3, 3-(3,5-dichloro-4-fluorophenyl)-5-(4-{3-fluoro-1-[(methylsulfonyl)-acetyl]azetidin-3-yl}phenyl)-3-(trifluoromethyl)-3,4-dihydro-2H-pyrrole]
  lethal dose 80% (LD80): 3 µg/mL
  minimum effective concentration (MEC): 1 µM

## CC(C)C(=O)N1CC(F)(c2ccc(C3=NCC(c4cc(Cl)c(F)c(Cl)c4)(C(F)(F)F)C3)cc2)C1 (centres unmarked) [Example 4, 3-(3,5-dichloro-4-fluorophenyl)-5-[4-(3-fluoro-1-isobutyrylazetidin-3-yl)phenyl]-3-(trifluoromethyl)-3,4-dihydro-2H-pyrrole]
  minimum effective concentration (MEC): 1 µM

## CS(=O)(=O)CC(=O)N1CC(F)(c2ccc(C3=NCC(c4cc(Cl)c(Cl)c(Cl)c4)(C(F)(F)F)C3)cc2)C1 (centres unmarked) [Example 5, 1-(3-fluoro-3-{4-[4-(3,4,5-trichloro-phenyl)-4-trifluoromethyl-4,5-dihydro-3H-pyrrol-2-yl]-phenyl}-azetidin-1-yl)-2-methanesulfonyl-ethanone]
  lethal dose 80% (LD80): 1 µg/mL
  minimum effective concentration (MEC): 1 µM

## CC(C)C(=O)N1CC(F)(c2ccc(C3=NCC(c4cc(Cl)c(Cl)c(Cl)c4)(C(F)(F)F)C3)cc2)C1 (centres unmarked) [Example 6, 5-[4-(3-fluoro-1-isobutyrylazetidin-3-yl)phenyl]-3-(3,4,5-trichloro-phenyl)-3-(trifluoromethyl)-3,4-dihydro-2H-pyrrole]
  lethal dose 80% (LD80): 3 µg/mL

## CC(C)C(=O)N1CC(F)(c2ccc(C3=NOC(c4cc(Cl)c(F)c(Cl)c4)(C(F)(F)F)O3)cc2)C1 (centres unmarked) [Example 8, 1-(3-{4-[5(3,5-dichloro-4-fluoro-phenyl)-5-trifluoromethyl-[1,4,2]dioxazol-3-yl]-phenyl}-3-fluoro-azetidin-1-yl)-2-methyl-propan-1-one]
  minimum effective concentration (MEC): 30 µM

## CS(=O)(=O)CC(=O)N1CC(F)(c2ccc(C3=NNC(c4cc(Cl)c(F)c(Cl)c4)(C(F)(F)F)C3)cc2)C1 (centres unmarked) [Example 18, 1-(3-(4-(5-(3,5-dichloro-4-fluorophenyl)-5-(trifluoromethyl)-4,5-dihydro-1H-pyrazol-3-yl)phenyl)-3-fluoroazetidin-1-yl)-2-(methylsulfonyl)ethanone]
  minimum effective concentration (MEC): 30 µM
